In patent publication US10723741B1, “DNA polymerase IIIC inhibitors and use thereof” (Acurx Pharmaceuticals, LLC, priority 2018, dated 2020):
≈ marks a conversion by molar mass, not a printed value. Read-outs that look alike come from different tables or passages of the source.

Columns and labels:
Assay type in all cases: cell-based
[1] = system: Staphylococcus aureus NRS384 (MRSA); experiment: Broth microdilution MIC, S. aureus NRS384 (MRSA); conditions: Staphylococcus aureus, broth microdilution, 37° C., 20 hours
Outline: (§1)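 Broth microdilution in strain-specific test medium with ~5.0×10^5 cfu/ml inoculum, 1% DMSO and two-fold compound dilutions from 64 to 0.0625 μg/ml. Plates were held 20 hours at 37° C in ambient air. S. pneumoniae colonies were grown beforehand on blood agar in 5% CO2.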

[2] = system: Staphylococcus aureus ATCC 29213 (MSSA); experiment: Broth microdilution MIC, S. aureus ATCC 29213 (MSSA); conditions: broth microdilution, 37° C., 20 hours, read-out: MIC S. aureus ATCC 29213 (MSSA)
Outline: as §1

[3] = system: Enterococcus faecalis ATCC 29212; experiment: Broth microdilution MIC, E. faecalis ATCC 29212; conditions: ATCC29212, broth microdilution, 37° C., 20 hours, read-out: MIC E. faecalis ATCC 29212
Outline: as §1

[4] = system: Enterococcus faecium ATCC 700221 (VRE); experiment: Broth microdilution MIC, E. faecium ATCC 700221 (VRE); conditions: Enterococcus faecium, broth microdilution, 37° C., 20 hours
Outline: as §1

[5] = system: Streptococcus pneumoniae ATCC 49619; experiment: Broth microdilution MIC, S. pneumoniae ATCC 49619; conditions: ATCC49619, broth microdilution, 37° C., 20 hours, read-out: MIC S. pneumoniae ATCC 49619
Outline: as §1

[6] = system: Bacillus subtilis ATCC 6633; experiment: Broth microdilution MIC, B. subtilis ATCC 6633; conditions: ATCC6633, broth microdilution, 37° C., 20 hours, read-out: MIC B. subtilis ATCC 6633
Outline: as §1

[7] = system: Escherichia coli ATCC 25922; experiment: Broth microdilution MIC, E. coli ATCC 25922 (MHIIB w & w/o 4 mM EDTA); conditions: broth microdilution, 37° C., 20 hours; for MIC: Escherichia coli, ATCC25922, without EDTA, read-out: MIC E. coli ATCC 25922; for MIC E. coli ATCC 25922 + 4 mM EDTA: with 4 mM EDTA
Outline: as §1

[8] = read-out: MIC E. faecium ATCC 700221 (VRE)

| SMILES | MIC ([1]; read-out: MIC NRS 384 (MRSA)) | MIC [2] | MIC [3] | MIC [4, 8] | MIC [5] | MIC [6] | MIC [7] | MIC E. coli ATCC 25922 + 4 mM EDTA [7] | MIC ([1]; MHIIB, read-out: MIC against S. aureus NRS 384 (MRSA)) | MIC ([4]; MHIIB, read-out: MIC against E. faecium ATCC 700221 (VRE)) |
| --- | --- | --- | --- | --- | --- | --- | --- | --- | --- | --- |
| COCCCCCn1ncc2nc(NCc3ccc(Cl)c(Cl)c3)[nH]c(=O)c21 [Compound 131, 5-((3,4-Dichlorobenzyl)amino)-1-(5-methoxypentyl)-1H-pyrazolo[4,3-d]pyrimidin-7(6H)-one] | 2 µg/mL (≈ 4.87 µM) | 2 µg/mL (≈ 4.87 µM) | 4 µg/mL (≈ 9.75 µM) | 2 µg/mL (≈ 4.87 µM) | 4 µg/mL (≈ 9.75 µM) | 1 µg/mL (≈ 2.44 µM) | > 64 µg/mL | >64 µg/mL |  |  |
| CC(C)n1cc2nc(NCc3ccc(Cl)c(Cl)c3)[nH]c(=O)c2n1 [Compound 132, 5-((3,4-Dichlorobenzyl)amino)-2-isopropyl-2H-pyrazolo[4,3-d]pyrimidin-7(6H)-one] | > 64 µg/mL | > 64 µg/mL | > 64 µg/mL | 16 µg/mL (≈ 45.4 µM) | 16 µg/mL (≈ 45.4 µM) | 8 µg/mL (≈ 22.7 µM) | > 64 µg/mL | >64 µg/mL |  |  |
| COCCCCCn1cc2nc(NCc3ccc(Cl)c(Cl)c3)[nH]c(=O)c2n1 [Compound 133, 5-((3,4-Dichlorobenzyl)amino)-2-(5-methoxypentyl)-2H-pyrazolo[4,3-d]pyrimidin-7(6H)-one] | > 64 µg/mL | > 64 µg/mL | > 64 µg/mL | 64 µg/mL (≈ 156 µM) | 16 µg/mL (≈ 39 µM) | 8 µg/mL (≈ 19.5 µM) | > 64 µg/mL | >64 µg/mL |  |  |
| O=c1[nH]c(NCc2ccc(Cl)c(Cl)c2)nc2cnn(CC3CCC3)c12 [Compound 134, 1-(Cyclobutylmethyl)-5-((3,4-dichlorobenzyl)amino)-1H-pyrazolo[4,3-d]pyrimidin-7(6H)-one] | 1 µg/mL (≈ 2.64 µM) | 1 µg/mL (≈ 2.64 µM) | > 64 µg/mL | 1 µg/mL (≈ 2.64 µM) | 8 µg/mL (≈ 21.1 µM) | 0.5 µg/mL (≈ 1.32 µM) | > 64 µg/mL | >64 µg/mL | ≤ 1 µg/mL | ≤ 1 µg/mL |
| O=c1[nH]c(NCc2ccc(Cl)c(Cl)c2)nc2cn(CC3CCC3)nc12 [Compound 135, 2-(Cyclobutylmethyl)-5-((3,4-dichlorobenzyl)amino)-2H-pyrazolo[4,3-d]pyrimidin-7(6H)-one] | 8 µg/mL (≈ 21.1 µM) | 32 µg/mL (≈ 84.6 µM) | > 64 µg/mL | 8 µg/mL (≈ 21.1 µM) | 16 µg/mL (≈ 42.3 µM) | 4 µg/mL (≈ 10.6 µM) | > 64 µg/mL | 8 µg/mL |  |  |
| COCCOCCn1ncc2nc(NCc3ccc(Cl)c(Cl)c3)[nH]c(=O)c21 [Compound 136, 5-((3,4-Dichlorobenzyl)amino)-1-(2-(2-methoxyethoxy)ethyl)-1H-pyrazolo[4,3-d]pyrimidin-7(6H)-one] | 4 µg/mL (≈ 9.7 µM) | 4 µg/mL (≈ 9.7 µM) | 4 µg/mL (≈ 9.7 µM) | 2 µg/mL (≈ 4.85 µM) | 2 µg/mL (≈ 4.85 µM) | 1 µg/mL (≈ 2.43 µM) | > 64 µg/mL | >64 µg/mL |  |  |
| COCCOCCn1cc2nc(NCc3ccc(Cl)c(Cl)c3)[nH]c(=O)c2n1 [Compound 137, 5-((3,4-Dichlorobenzyl)amino)-2-(2-(2-methoxyethoxy)ethyl)-2H-pyrazolo[4,3-d]pyrimidin-7(6H)-one] | 32 µg/mL (≈ 77.6 µM) | 32 µg/mL (≈ 77.6 µM) | 32 µg/mL (≈ 77.6 µM) | 16 µg/mL (≈ 38.8 µM) | 16 µg/mL (≈ 38.8 µM) | 16 µg/mL (≈ 38.8 µM) | > 64 µg/mL | >64 µg/mL |  |  |
| COCCOCn1ncc2nc(NCc3ccc(Cl)c(Cl)c3)[nH]c(=O)c21 [Compound 138, 5-((3,4-dichlorobenzyl)amino)-1-((2-methoxyethoxy)methyl)-1H-pyrazolo[4,3-d]pyrimidin-7(6H)-one] | 2 µg/mL (≈ 5.02 µM) | 2 µg/mL (≈ 5.02 µM) | 4 µg/mL (≈ 10 µM) | 2 µg/mL (≈ 5.02 µM) | 2 µg/mL (≈ 5.02 µM) | 1 µg/mL (≈ 2.51 µM) | > 64 µg/mL | >64 µg/mL |  |  |
| O=c1[nH]c(NCc2ccc(Cl)c(Cl)c2)nc2cnn(-c3ncccn3)c12 [Compound 139, 5-((3,4-Dichlorobenzyl)amino)-1-(pyrimidin-2-yl)-1H-pyrazolo[4,3-d]pyrimidin-7(6H)-one] | > 64 µg/mL | > 64 µg/mL | > 64 µg/mL | > 64 µg/mL | > 64 µg/mL | > 64 µg/mL | > 64 µg/mL | >64 µg/mL |  |  |
| O=c1[nH]c(NCc2ccc(Cl)c(Cl)c2)nc2cn(-c3ncccn3)nc12 [Compound 140, 5-((3,4-Dichlorobenzyl)amino)-2-(pyrimidin-2-yl)-2H-pyrazolo[4,3-d]pyrimidin-7(6H)-one] | > 64 µg/mL | > 64 µg/mL | > 64 µg/mL | 32 µg/mL (≈ 82.4 µM) | 4 µg/mL (≈ 10.3 µM) | 4 µg/mL (≈ 10.3 µM) | > 64 µg/mL | >64 µg/mL |  |  |
| O=C(O)COCCn1cc2nc(NCc3ccc(Cl)c(Cl)c3)[nH]c(=O)c2n1 [Compound 141, 2-(2-(5-((3,4-Dichlorobenzyl)amino)-7-oxo-6,7-dihydro-2H-pyrazolo[4,3-d]pyrimidin-2-yl)ethoxy)acetic acid] | > 64 µg/mL | > 64 µg/mL | > 64 µg/mL | > 64 µg/mL | > 64 µg/mL | > 64 µg/mL | > 64 µg/mL | >64 µg/mL |  |  |
| O=c1[nH]c(NCc2ccc(Cl)c(Cl)c2)nc2cnn(C3COC3)c12 [Compound 142, 5-((3,4-Dichlorobenzyl)amino)-1-(oxetan-3-yl)-1H-pyrazolo[4,3-d]pyrimidin-7(6H)-one] | 2 µg/mL (≈ 5.46 µM) | 4 µg/mL (≈ 10.9 µM) | 4 µg/mL (≈ 10.9 µM) | 2 µg/mL (≈ 5.46 µM) | 4 µg/mL (≈ 10.9 µM) | 1 µg/mL (≈ 2.73 µM) | > 64 µg/mL | >64 µg/mL |  |  |
| O=c1[nH]c(NCc2ccc(Cl)c(Cl)c2)nc2cn(C3COC3)nc12 [Compound 143, 5-((3,4-Dichlorobenzyl)amino)-2-(oxetan-3-yl)-2H-pyrazolo[4,3-d]pyrimidin-7(6H)-one] | 32 µg/mL (≈ 87.4 µM) | 64 µg/mL (≈ 175 µM) | 32 µg/mL (≈ 87.4 µM) | 32 µg/mL (≈ 87.4 µM) | 16 µg/mL (≈ 43.7 µM) | 16 µg/mL (≈ 43.7 µM) | > 64 µg/mL | >64 µg/mL |  |  |
| O=c1[nH]c(NCc2ccc(Cl)c(Cl)c2)nc2cnn(Cc3ncco3)c12 [Compound 144, 5-((3,4-Dichlorobenzyl)amino)-1-(oxazol-2-ylmethyl)-1H-pyrazolo[4,3-d]pyrimidin-7(6H)-one] | 4 µg/mL (≈ 10.2 µM) | 4 µg/mL (≈ 10.2 µM) | 16 µg/mL (≈ 40.9 µM) | 2 µg/mL (≈ 5.11 µM) | 8 µg/mL (≈ 20.4 µM) | 2 µg/mL (≈ 5.11 µM) | > 64 µg/mL | >64 µg/mL |  |  |
| O=C(O)CCCn1ncc2nc(NCc3ccc(Cl)c(Cl)c3)[nH]c(=O)c21 [Compound 145, 4-(5-((3,4-Dichlorobenzyl)amino)-7-oxo-6,7-dihydro-1H-pyrazolo[4,3-d]pyrimidin-1-yl)butanoic acid] | 64 µg/mL (≈ 162 µM) | 64 µg/mL (≈ 162 µM) | 64 µg/mL (≈ 162 µM) | 16 µg/mL (≈ 40.4 µM) | 16 µg/mL (≈ 40.4 µM) | 32 µg/mL (≈ 80.8 µM) | > 64 µg/mL | >64 µg/mL |  |  |
| CP(C)(=O)CCCCn1ncc2nc(NCc3ccc(Cl)c(Cl)c3)[nH]c(=O)c21 [Compound 146, 5-((3,4-Dichlorobenzyl)amino)-1-(4-(dimethylphosphoryl)butyl)-1H-pyrazolo[4,3-d]pyrimidin-7(6H)-one] | > 64 µg/mL | > 64 µg/mL | 64 µg/mL (≈ 145 µM) | 32 µg/mL (≈ 72.4 µM) | 32 µg/mL (≈ 72.4 µM) | 32 µg/mL (≈ 72.4 µM) | > 64 µg/mL | >64 µg/mL |  |  |
| CN1CCOC(Cn2ncc3nc(NCc4ccc(Cl)c(Cl)c4)[nH]c(=O)c32)C1.Cl (centres unmarked) [Compound 147, 5-((3,4-dichlorobenzyl)amino)-1-((4-methylmorpholin-2-yl)methyl)-1H-pyrazolo[4,3-d]pyrimidin-7(6H)-one hydrochloride] | 4 µg/mL | 8 µg/mL | 8 µg/mL | 2 µg/mL | 4 µg/mL | 2 µg/mL | > 64 µg/mL | 64 µg/mL |  |  |
| CC(C)(C)OC(=O)N1CCOC(Cn2ncc3nc(NCc4ccc(Cl)c(Cl)c4)[nH]c(=O)c32)C1 (centres unmarked) [Compound 148, tert-butyl 2-((5-((3,4-dichlorobenzyl)amino)-7-oxo-6,7-dihydro-1H-pyrazolo[4,3-d]pyrimidin-1-yl)methyl)morpholine-4-carboxylate] | 4 µg/mL (≈ 7.85 µM) | 8 µg/mL (≈ 15.7 µM) | 16 µg/mL (≈ 31.4 µM) | 4 µg/mL (≈ 7.85 µM) | 16 µg/mL (≈ 31.4 µM) | 2 µg/mL (≈ 3.93 µM) | > 64 µg/mL | >64 µg/mL |  |  |
